In patent US20260191807A1, “COMPOSITIONS AND METHODS FOR TREATMENT OF PRADER-WILLI SYNDROME” (ERX Pharmaceuticals Inc., priority 2022, published 2026):
Where “and” joins values, the source holds several entries; their conditions need not be identical. Equal entries are not always repeated.

Tests used:
Assay type in all cases: in vivo
[1] = tested on: C57BL/6 DIO mice; test: Daily food intake of C57BL/6 DIO mice; conditions: for Food intake (food weights in g/day): Belaronib 0.3 mg/kg SC, Celastrol 0.2 mg/kg IP daily, mean
Procedure: (§1) C57BL/6 mice were treated with test compound (Celastrol) or controls as shown in the table below from Day 1 to Day 15. […] One mouse was excluded from the study because it appeared resistant to nestlet shredding prior to treatment.
Male C57BL/6 DIO mice were obtained from Jackson Labs (Bar Harbor, ME). The mice arrived at ages 17 weeks and mice were housed 3 per cage on arrival. Prior to dosing in the study, the mice were singly housed.
(§2) All treatment volumes were 10 mL/kg. Utilizing the art-recognized nestlet shredding mouse model, […]. Celastrol and the vehicle control were administered intraperitoneally using a 30G needle. Beloranib was administered subcutaneously using a 30G needle. All treatments were administered daily in the afternoon at 17:00 h, 1 hour before dark cycle from Day 1 to end of dosing.
Celastrol was dissolved in a pharmaceutically-acceptable excipient, e.g., 50% Solutol/50% DMAC, and this stock solution aliquoted and stored at −80° C. until treatment day. On the day of treatment, an aliquot of the stock solution was thawed and diluted […] with saline to obtain the desired dosing solution strength in 5% Solutol/5% dimethylacetamide/90% saline. The vehicle control was 5% Solutol/5% dimethylacetamide/90% saline. Beloranib was dissolved in 100% DMSO, and this stock solution was aliquoted and stored at −80° C. until treatment day. On the day of treatment, an aliquot of the stock solution was thawed and diluted 1:10 with deionized (DI) water to obtain the desired dosing solution strength in 10% DMSO.
Daily food intake was calculated based on remaining food weight compared to food weight on the previous day using an Ohaus model CS 200 balance.

[2] = tested on: C57BL/6 DIO mice; test: Body weights of C57BL/6 DIO mice during daily treatment; conditions: Celastrol 0.2 mg/kg IP daily; for Body weights (expressed as a percentage of day-1 weight) / Body weights (in grams): Belaronib 0.3 mg/kg SC, mean
[3] = tested on: C57BL/6 mice; test: Deaths and clinical signs, C57BL/6 DIO study; conditions: C57BL/6 DIO mice treated Day 1 to Day 15; Celastrol 0.2 mg/kg IP
Procedure: as §1

[4] = tested on: C57BL/6-Magel2 mice; test: Nestlet shredding test in C57BL/6 Magel2 mice; conditions: 0.2 mg/kg IP QD, mean
Procedure: The nestlet shredding behavioral effects of celastrol was evaluated in Magel2 knockout mice. Magel2 knockout has been used as a model of Prader-Willi syndrome to assess potential pharmacological treatments effect on behavior (Meziane 2015). Without wishing to be bound by theory, the Magel2 gene is a major causative gene of phenotypes in both Prader-Willi syndrome and autism (Schraff 2013). Further, nestlet shredding has been used to assess anxiety and compulsive behaviors in mouse models (Angoa-Perez 2013 and Dorniger 2020) and has been used to characterize clinically effective treatments for Prader-Willi syndrome (Fagen 2018 and McCandless 2017).
(§3) In the study disclosed herein, celastrol at was administered intraperitoneally using a 30G needle at a dose of 0.2 mg/kg to five female Magel2 homozygous mice (−/−) and four male mice heterozygous for Magel2 (−/+). In addition, vehicle was administered to four male mice heterozygous for Magel2 (−/+) for 21 days.
C57BL/6-Magel2 mice were bred for purpose from cryo recovery by Jackson Labs (Bar Harbor, ME) and arrived at the testing facility at age 8 weeks.
as §2, with “needle.” for “needle. Beloranib was administered subcutaneously using a 30G needle.”
Celastrol was dissolved in 50% Solutol/50% DMAC. The resulting stock solution aliquoted and stored at −80° C. until treatment day. On the day of treatment an aliquot of the stock solution was thawed and diluted 1:20 with saline to obtain the desired dosing solution strength in 5%
The nestlet shredding test is an art-recognized animal model for human repetitive, anxiety, and/or compulsive behaviors. In the nestlet shredding test, a nestlet comprised of pulped fiber, e.g., cotton fiber, is preweighed and placed on top of cage bedding and the amount of the nestlet remaining intact after a test session of pre-determined time is evaluated.
Nestlet shredding was determined on day 1, day 11, and day 21 by placing a fresh nestlet prior to the dark cycle and measuring the weight of the remaining nestlet at 12 and 24 hours on an Ohaus model CS 200 balance. Percent shredding was calculated based on the initial nestlet weight.

[5] = tested on: Magel2 mice; test: Deaths and clinical signs, Magel2 study; conditions: 0.2 mg/kg IP for 21 days
Procedure: as §3

SMILES: CC1=C(O)C(=O)C=C2C1=CC=C1[C@@]2(C)CC[C@@]2(C)[C@@H]3C[C@](C)(C(=O)O)CC[C@]3(C)CC[C@]12C [Celastrol]
- cumulative food intake, average total for the study ([1]; 15-day study, Beloranib 0.3 mg/kg SC, celastrol 0.2 mg/kg IP daily, vehicle 32.6 g): 17.4 g/mouse
- effect on food intake (in words) ([1]; Celastrol compared with positive control Beloranib): more potent and sustained effect on food intake
- Food intake (food weights in g/day) ([1]; Day 1): 2.7 g/day
- Food intake (food weights in g/day) ([1]; Day 2): 1.2 g/day
- Food intake (food weights in g/day) ([1]; Day 3): 1.1 g/day
- Food intake (food weights in g/day) ([1]; Day 4): 0.9 g/day
- Food intake (food weights in g/day) ([1]; Day 5): 0.7 g/day
- Food intake (food weights in g/day) ([1]; Day 6): 0.9 g/day
- Food intake (food weights in g/day) ([1]; Day 7): 1.1 g/day
- Food intake (food weights in g/day) ([1]; Day 8): 1.2 g/day
- Food intake (food weights in g/day) ([1]; Day 9): 0.7 g/day
- Food intake (food weights in g/day) ([1]; Day 10): 0.9 g/day
- Food intake (food weights in g/day) ([1]; Day 11): 1.1 g/day
- Food intake (food weights in g/day) ([1]; Day 12): 1.3 g/day
- Food intake (food weights in g/day) ([1]; Day 13): 1.4 g/day
- Food intake (food weights in g/day) ([1]; Day 14): 1.2 g/day
- Food intake (food weights in g/day) ([1]; Day 15): 1.0 g/day
- food intake, average ([1]; from day 2 throughout the 15-day study, 0.2 mg/kg IP daily, vehicle around 2.2): 1.0 g/day/mouse
- Body weights (expressed as a percentage of day-1 weight) ([2]; Day 1): 100.0%
- Body weights (in grams) ([2]; Day 1): 44.8 grams and 45.4 grams
- Body weights (expressed as a percentage of day-1 weight) ([2]; Day 2): 98.6%
- Body weights (in grams) ([2]; Day 2): 44.8 grams
- Body weights (expressed as a percentage of day-1 weight) ([2]; Day 3): 95.8%
- Body weights (in grams) ([2]; Day 3): 43.5 grams
- Body weights (expressed as a percentage of day-1 weight) ([2]; Day 4): 92.8%
- Body weights (in grams) ([2]; Day 4): 42.2 grams
- Body weights (expressed as a percentage of day-1 weight) ([2]; Day 5): 89.6%
- Body weights (in grams) ([2]; Day 5): 40.7 grams
- Body weights (expressed as a percentage of day-1 weight) ([2]; Day 6): 86.2%
- Body weights (in grams) ([2]; Day 6): 39.2 grams
- Body weights (expressed as a percentage of day-1 weight) ([2]; Day 7): 83.8%
- Body weights (in grams) ([2]; Day 7): 38.1 grams
- Body weights (expressed as a percentage of day-1 weight) ([2]; Day 8): 81.3%
- Body weights (in grams) ([2]; Day 8): 37.0 grams
- Body weights (expressed as a percentage of day-1 weight) ([2]; Day 9): 79.2%
- Body weights (in grams) ([2]; Day 9): 36.0 grams
- Body weights (expressed as a percentage of day-1 weight) ([2]; Day 10): 76.5%
- Body weights (in grams) ([2]; Day 10): 34.8 grams
- Body weights (expressed as a percentage of day-1 weight) ([2]; Day 11): 73.9%
- Body weights (in grams) ([2]; Day 11): 33.6 grams
- Body weights (expressed as a percentage of day-1 weight) ([2]; Day 12): 72.2%
- Body weights (in grams) ([2]; Day 12): 32.8 grams
- Body weights (expressed as a percentage of day-1 weight) ([2]; Day 13): 71.1%
- Body weights (in grams) ([2]; Day 13): 32.3 grams
- Body weights (expressed as a percentage of day-1 weight) ([2]; Day 14): 70.1%
- Body weights (in grams) ([2]; Day 14): 31.9 grams
- Body weights (expressed as a percentage of day-1 weight) ([2]; Day 15): 69.2%
- Body weights (in grams) ([2]; Day 15): 31.4 grams
- body weight lost (percentage of day 1 body weight) ([2]; at day 15, Beloranib 0.3 mg/kg SC, vehicle-treated mice lost 15.5%): 30.8%
- deaths or abnormal clinical signs [3]: No deaths or abnormal clinical signs
- Nestlet Shredding (percent of nestlet shredded) ([4]; Day 1, 12 hour, Magel2 (−/+) heterozygous male mice): 100.0%
- Nestlet Shredding (percent of nestlet shredded) ([4]; Day 1, 12 hour, Magel2 (−/−) homozygous female mice): 100.0%
- Nestlet Shredding (percent of nestlet shredded) ([4]; Day 11, 12 hour, Magel2 (−/+) heterozygous male mice): 100.0%
- Nestlet Shredding (percent of nestlet shredded) ([4]; Day 11, 12 hour, Magel2 (−/−) homozygous female mice): 54.7%
- Nestlet Shredding (percent of nestlet shredded) ([4]; Day 11, 24 hour, Magel2 (−/+) heterozygous male mice): 100.0%
- Nestlet Shredding (percent of nestlet shredded) ([4]; Day 11, 24 hour, Magel2 (−/−) homozygous female mice): 93.5%
- Nestlet Shredding (percent of nestlet shredded) ([4]; Day 21, 12 hour, Magel2 (−/+) heterozygous male mice): 38.3%
- Nestlet Shredding (percent of nestlet shredded) ([4]; Day 21, 12 hour, Magel2 (−/−) homozygous female mice): 54.7%
- Nestlet Shredding (percent of nestlet shredded) ([4]; Day 21, 24 hour, Magel2 (−/+) heterozygous male mice): 44.6%
- Nestlet Shredding (percent of nestlet shredded) ([4]; Day 21, 24 hour, Magel2 (−/−) homozygous female mice): 62.3%
- deaths or abnormal clinical signs [5]: No deaths or abnormal clinical signs
